# Test system: NF-κB
# Experiment: NF-κB assay: THP1-NF-κB-LUC cells, LPS-stimulated secreted luciferase
# Type: cell-based
# Settings: THP1-NF-κB-LUC cells, LPS-stimulated; read-out: IC50 (NF-κB assay)
# Experimental: FIG. 1 contains line plots showing NF-κB activity of exemplified compounds. 25k THP1-NF-κB-LUC cells were dispensed into 384 well plate (per well). Cells were treated with compounds (2 μM and 0.2 μM) for 2 hours before addition of LPS (10 ng/mL) for 18 hours. Secreted luciferase activity were measured using quant-luc reagents (1 bag of luc reagent dilute to 40 mL, use 10 μL per well). Data were normalized to vehicle control and graphed. Structures of selected exemplified compounds are shown.
# FIG. 2 contains heat charts showing NF-κB activity of exemplified compounds as a function of concentration. 25k THP1-NF-κB-LUC cells were dispensed into 384 well plate (per well). Cells were treated with compounds (with serial dilution) for 2 hours before addition of LPS (10 ng/ml) for 18 hours. Secreted luciferase activity were measured using quant-luc reagents (1 bag of luc reagent dilute to 40 mL, use 10 μL per well). Structures of selected exemplified compounds are shown.
# 25k THP1-NF-κB-LUC cells were dispensed into 384 well plate (per well). Cells were treated with compounds with various concentrations for 2 hours before addition of LPS (10 ng/mL) for 18 hours. Secreted luciferase activity were measured using quant-luc reagents (1 bag of luc reagent dilute to 40 mL, use 10 μL per well). Data were normalized to vehicle control and graphed. Compound IC50 towards inhibiting NF-κB were determined through Prism. Similarly, 10k human PBMCs cells were cultured in 384 well plate (per well). Cells were treated with compounds with various concentrations for 2 hours before addition of LPS (10 ng/ml) for 18 hours, and supernatants were collected and assayed for TNF ELISA. Compound IC50 towards inhibiting TNF release were determined through Prism. • Activity: “+”>10 μM, “++”>1 μM and <10 μM, “+++”>0.1 μM and <1 μM, “++++”<0.1 μM.
row,SMILES,IC50 [nM]
1,CCN(CC)C(=O)c1ccc2nc(-c3ccccc3)c(-c3ccccc3)nc2c1 [BC18400],< 100
2,CCOCCCNC(=O)c1ccc2nc(-c3ccc(F)cc3)c(-c3ccc(F)cc3)nc2c1 [BC18404],< 100
3,CCC1CCN(CCNC(=O)c2ccc3nc(-c4ccccc4)c(-c4ccccc4)nc3c2)CC1 [BC18406],< 100
4,CNC(=O)c1ccc2nc(-c3cccc(C)c3)c(-c3cccc(C)c3)nc2c1 [BC18407],1000 to 10000
5,CCOc1ccc(-c2nc3ccc(C(=O)NCCN(CC)CC)cc3nc2-c2ccc(OCC)cc2)cc1 [BC18411],1000 to 10000
6,O=C(c1ccc2nc(-c3ccccc3)c(-c3ccccc3)nc2c1)N1CCN(c2ccccc2)CC1 [BC18412],1000 to 10000
7,Cc1cccc(-c2nc3ccc(C(=O)NCc4ccc(F)cc4)cc3nc2-c2cccc(C)c2)c1 [BC18414],> 10000
8,CCCNC(=O)c1ccc2nc(-c3ccc(F)cc3)c(-c3ccc(F)cc3)nc2c1 [BC18415],< 100
9,CCCN1CCN(CCCNC(=O)c2ccc3nc(-c4ccccc4)c(-c4ccccc4)nc3c2)CC1 [BC18418],100 to 1000
10,O=C(NCc1ccc(F)cc1)c1ccc2nc(-c3ccc(F)cc3)c(-c3ccc(F)cc3)nc2c1 [BC18420],100 to 1000
11,O=C(NCc1ccc(Cl)cc1)c1ccc2nc(-c3ccccc3)c(-c3ccccc3)nc2c1 [BC18421],> 10000
12,COCCNC(=O)c1ccc2nc(-c3ccccc3)c(-c3ccccc3)nc2c1 [BC18422],< 100

# Other lines, results leading:
row,IC50 [nM],SMILES
1,100 to 1000,CCOc1ccccc1CNC(=O)c1ccc2nc(-c3ccc(F)cc3)c(-c3ccc(F)cc3)nc2c1 [BC18401]
2,1000 to 10000,CCCNC(=O)c1ccc2nc(-c3cccc(C)c3)c(-c3cccc(C)c3)nc2c1 [BC18402]
3,< 100,CC(C)NC(=O)c1ccc2nc(-c3ccc(F)cc3)c(-c3ccc(F)cc3)nc2c1 [BC18403]
4,< 100,O=C(NCc1cccnc1)c1ccc2nc(-c3ccccc3)c(-c3ccccc3)nc2c1 [BC18405]
5,100 to 1000,COc1cccc(CNC(=O)c2ccc3nc(-c4ccc(F)cc4)c(-c4ccc(F)cc4)nc3c2)c1 [BC18408]
6,< 100,O=C(c1ccc2nc(-c3ccccc3)c(-c3ccccc3)nc2c1)N1CCCC1 [BC18409]
7,< 100,O=C(NCc1ccccn1)c1ccc2nc(-c3ccccc3)c(-c3ccccc3)nc2c1 [BC18410]
8,100 to 1000,CSc1ccc(CNC(=O)c2ccc3nc(-c4ccc(F)cc4)c(-c4ccc(F)cc4)nc3c2)cc1 [BC18413]
9,< 100,CC(C)OCCCNC(=O)c1ccc2nc(-c3ccc(F)cc3)c(-c3ccc(F)cc3)nc2c1 [BC18416]
10,< 100,CCN(CC)CCCNC(=O)c1ccc2nc(-c3ccccc3)c(-c3ccccc3)nc2c1 [BC18417]
11,1000 to 10000,CCCN(CCC)CCNC(=O)c1ccc2nc(-c3cccc(C)c3)c(-c3cccc(C)c3)nc2c1 [BC18419]

# Same assay, conditions: THP1-NF-κB-LUC cells; compounds 2 hours before LPS (10 ng/mL) for 18 hours; secreted luciferase; read-out: IC50 (NF-κB assay)
row,SMILES,IC50 [nM]
1,Cc1ccc(S(=O)(=O)c2c[nH]c3cc(Cl)ccc3c2=O)cc1F [BC18302],< 100
2,O=c1c(S(=O)(=O)c2cc(Cl)cc(Cl)c2)c[nH]c2ccc(Cl)cc12 [BC18304],1000 to 10000
3,N#Cc1ccc(S(=O)(=O)c2c[nH]c3ccc(F)cc3c2=O)cc1 [BC18306],> 10000
4,COc1ccc(S(=O)(=O)c2c[nH]c3cc(F)ccc3c2=O)cc1 [BC18309],1000 to 10000
5,COc1ccc2[nH]cc(S(=O)(=O)c3ccc(C#N)cc3)c(=O)c2c1 [BC18312],> 10000
6,Cc1ccc(S(=O)(=O)c2cc3cc(Cl)ccc3oc2=O)cc1Cl [BC18313],> 10000
7,Cc1cc(C)c(S(=O)(=O)c2ccc(Br)cc2)c(=O)[nH]1 [BC18315],> 10000
8,N#Cc1cccc(S(=O)(=O)c2cc3cc(Br)ccc3oc2=O)c1 [BC18317],> 10000
9,CCc1ccc(C(=O)C2=CN(c3ccccc3)c3ccc(F)cc3S2(=O)=O)cc1 [BC18318],> 10000
10,COc1cccc2cc(S(=O)(=O)c3ccc(C)c(Cl)c3)c(=O)oc12 [BC18319],> 10000
11,CCc1ccc(S(=O)(=O)c2c[nH]c3ccc(F)cc3c2=O)cc1 [BC18321],100 to 1000
12,CC(C)(C)c1ccc(S(=O)(=O)c2c[nH]c3ccc(Br)cc3c2=O)cc1 [BC18322],1000 to 10000
13,CCOc1ccc2[nH]cc(S(=O)(=O)c3ccc(CO)cc3)c(=O)c2c1 [BC18323],100 to 1000
14,Cc1ccc(S(=O)(=O)c2cn(C)c3cc(F)c(F)cc3c2=O)cc1 [BC18324],> 10000
15,CCn1cc(S(=O)(=O)c2ccc(C)cc2)c(=O)c2cc(F)ccc21 [BC18325],> 10000
16,CCc1ccc2c(c1)c(=O)c(S(=O)(=O)c1ccc(C)cc1)cn2C [BC18326],> 10000
17,CCOc1ccc2c(c1)c(=O)c(S(=O)(=O)c1ccc(Cl)cc1)cn2C [BC18327],> 10000
18,CCc1ccc(S(=O)(=O)c2cn(CCO)c3cc(F)c(F)cc3c2=O)cc1 [BC18331],> 10000
19,COc1ccc(S(=O)(=O)c2cn(CC(=O)Nc3ccc(F)cc3)c3ccc(C)cc3c2=O)cc1 [BC18335],> 10000
20,CCCCn1cc(S(=O)(=O)c2ccc(C)cc2)c(=O)c2cc(Cl)ccc21 [BC18336],> 10000
21,COc1cc2c(=O)c(S(=O)(=O)c3ccccc3)cn(Cc3cccc(Cl)c3)c2cc1OC [BC18337],> 10000
22,N#Cc1ccc(S(=O)(=O)c2c[nH]c3cc(F)ccc3c2=O)cc1F [BC18339],100 to 1000

# Second part, the molecule after the results:
row,IC50 [nM],SMILES
1,100 to 1000,N#Cc1ccc2c(=O)c(S(=O)(=O)c3ccc(F)c(Cl)c3)c[nH]c2c1 [BC18300]
2,1000 to 10000,O=c1c(S(=O)(=O)c2cccc(F)c2)c[nH]c2c(F)cccc12 [BC18301]
3,< 100,Cc1ccc(S(=O)(=O)c2c[nH]c3ccc(F)cc3c2=O)cc1F [BC18303]
4,100 to 1000,N#Cc1ccc2[nH]cc(S(=O)(=O)c3cc(Cl)cc(Cl)c3)c(=O)c2c1 [BC18305]
5,100 to 1000,COc1ccc2[nH]cc(S(=O)(=O)c3ccc(C)c(F)c3)c(=O)c2c1 [BC18307]
6,> 10000,COc1ccc2[nH]cc(S(=O)(=O)c3cc(Cl)cc(Cl)c3)c(=O)c2c1 [BC18308]
7,< 100,N#Cc1cccc(S(=O)(=O)c2c[nH]c3cc(C#N)ccc3c2=O)c1 [BC18310]
8,> 10000,Cc1ccc2[nH]cc(S(=O)(=O)c3ccc(C#N)cc3)c(=O)c2c1 [BC18311]
9,> 10000,Cc1ccc(S(=O)(=O)c2cc3cc(Br)ccc3oc2=O)cc1Cl [BC18314]
10,> 10000,COc1ccc2cc(S(=O)(=O)c3ccc(C)c(Cl)c3)c(=O)oc2c1 [BC18316]
11,< 100,CCc1ccc(S(=O)(=O)c2c[nH]c3cc(F)c(F)cc3c2=O)cc1 [BC18320]
12,1000 to 10000,Cc1ccc(S(=O)(=O)c2cn(Cc3cccc(C)c3)c3ccc(F)cc3c2=O)cc1 [BC18328]
13,> 10000,COc1ccc(S(=O)(=O)c2cn(CC(=O)Nc3ccc(C)cc3)c3ccc(Cl)cc3c2=O)cc1 [BC18329]
14,> 10000,COc1ccc(S(=O)(=O)c2cn(CC(=O)Nc3ccc(C)cc3)c3ccc(F)cc3c2=O)cc1 [BC18330]
15,> 10000,COc1ccc(S(=O)(=O)c2cn(CC(=O)Nc3ccccc3)c3ccc(F)cc3c2=O)cc1 [BC18332]
16,> 10000,COc1cc2c(=O)c(S(=O)(=O)c3ccc(Cl)cc3)cn(Cc3ccccc3F)c2cc1OC [BC18333]
17,> 10000,COc1ccc(S(=O)(=O)c2cn(CC(=O)Nc3ccc(Cl)cc3)c3ccc(C)cc3c2=O)cc1 [BC18334]
18,> 10000,COc1ccc2[nH]cc(S(=O)(=O)c3ccc(OC)c(OC)c3)c(=O)c2c1 [BC18338]
19,< 100,O=c1c(S(=O)(=O)c2ccc(F)c(F)c2)c[nH]c2c(F)ccc(Cl)c12 [BC18340]

# — patent US12606528B2, “Methods and materials for inhibiting NF-kB activity” (University of Pittsburgh - Of the Commonwealth System of …, priority 2019, dated 2026)
